Measurements reported in US8945595B2, “Insect repellent and attractants” (The Regents of the University of California, priority 2009, dated 2015).
Entries after “also recorded” stand apart in the source; their conditions may differ.

Experiments:
[1] = system: CO2-sensitive ab1C neurons; assay: single-sensillum electrophysiology, inhibition of CO2 response of ab1C neurons; format: cell-based, Drosophila; settings: odourant 10^-2; 3-sec 0.3% CO2 with 1-sec odourant
Description: Representative traces (top) and mean responses (bottom) from single-sensillum electrophysiology of ab1 sensilla in mutant flies; spikes represent activity of the ab1C neuron. a, 3-sec stimulus of odourant overlaid with a 1-sec application of 0.3% CO2. b, 3-sec stimulus of 0.3% CO2 overlaid with a 1-sec application of odourant. PO=paraffin oil, d4on=2,3-butanedione, 6ol=1-hexanol. n=6, error bars=s.e.m. Spikes per second were counted during the 1-sec stimulus period, and spontaneous activity subtracted. (For data in a and b, T-test, *P<0.001, **P<0.005, ***P<0.01, ****P<0.05) c, ab1C responses to indicated concentrations of CO2 in the presence of solvent (PO), 1-hexanol (6ol) or 2,3-butanedione (d4on). Odourants were tested at 10^−1 dilution. Firing rates were counted in consecutive 0.1-sec bins. n=3, error bars=s.e.m.
Bars indicate stimulus periods for 0.3% CO2, and overlays with 1-hexanol (6ol) or 2,3-butanedione (d4on) at the indicated concentrations. b, Recovery of ab1C responsiveness to a 0.5-sec, 0.3% CO2 stimulus applied every 30-sec after initial treatment with 3-sec stimulus of either d4on (10^−1) or paraffin oil (PO). n=5, error bars=s.e.m., (T-test, *P<0.005, **<0.01, ***P<0.05). c, CO2 response inhibition by structurally related compounds. A 3-sec stimulus of 0.3% CO2 was delivered in combination with 1-sec application of indicated odourant (10^−2) as in a. Percent increase or decrease in mean ab1C response was calculated relative to mean response of paraffin oil. n=5. d, Structures of CO2 and the 4 strongest antagonists. e-f, show mean odourant responses. e, Odourants were tested on ab1C neurons in Or83b2 flies at 10^−2 dilution in paraffin oil. Bars represent values after subtraction of mean response to paraffin oil. n=3. f, Odourants at indicated concentrations were tested on ab3A neuron in wild-type (wt) and ΔHalo (AH) mutants that lack Or22a and Or22b. Bars represent values after subtraction of spontaneous activity. n=5, error bars=s.e.m.
FIG. 16 is a schematic diagram of an odour-delivery system to maintain steady concentration of CO2 in binary mixture experiments. Cartridges were made from Pasteur pipettes with pre-filled cotton wool inserts. […] odorant dissolved in paraffin oil (at specific concentrations) was applied to the cotton wool, and a 1.5 ml disposable tip attached to the open end to make the “odour cartridge”. A controlled “humidified air flow” was generated from a compressed air cylinder by bubbling through water, and passed through a glass tube, and released over the recording arena holding the Drosophila. A C-55 stimulus controller (Syntech) was used to generate an additional activated-charcoal filtered continuous air flow of 5 ml/sec which was delivered into the humidified airstream through a “blank cartridge” with the tip placed through a hole in the tube. To generate controlled odourant stimulus the C-55 stimulus controller was used to switch air flow from the “continuous air flow” to “odor stimulus flow” channel. An additional CO2 stimulus was pulsed through a separate system that delivered controlled pulses (variable 2.5 ml/sec-6.5 ml/sec) into the same humidified airstream, from either a 1%, 5% or 100% cylinder of CO2 (Airgas).
Extracellular single-unit recordings were performed. Odourant stimuli were delivered via Pasteur pipette odour cartridges (see, FIG. 16). Chemicals were of the highest purity available, typically>99% (Sigma-Aldrich). All odourants were diluted in paraffin oil. A controlled volume of air 5 ml/sec was puffed through the odour cartridge containing vapours, and was delivered into a constant humidified airstream of 10 ml/sec that was passed over the fly antenna. […] CO2 stimulus was pulsed through a separate delivery system that delivered controlled pulses (variable 2.5 ml/sec-6.5 ml/sec) into the same humidified airstream, from either a 1%, 5% or 100% tank of CO2 (Airgas). […]

[2] = system: CO2 sensitive neuron (A neuron) of peg sensillum; assay: single-sensillum electrophysiology of maxillary palp peg sensillum, inhibition of CO2 response; format: cell-based, Culex quinquefasciatus; settings: 3-sec pre-exposure, 10^-1; 0.25% CO2 impulse every 30-sec over 6-min
Procedure: (§1) FIG. 2 depicts electrophysiology measurements of the peg sensillum on the mosquito maxillary palp. The palp, indicated in brown in the schematic of the mosquito head, has several peg sensilla. Each peg sensilla (grey club-like structure in the center) contains three olfactory neurons A, B and C as indicated, of which the ‘A’ neuron gives a robust and specific increase in frequency of action potentials in response to a stimulus of CO2. Extracellular single-unit recordings are performed by inserting a glass microelectrode into the peg sensilla, and puffing an odor such as CO2 towards the mosquito maxillary palps. The signal is amplified to obtain the trace of action potentials.
(§2) Action potential traces from the peg sensillum of the maxillary palp show spike amplitudes from three neurons, where the highest spike (from neuron A) indicates the CO2 response. A 3-sec stimulus of 0.3% CO2 (indicated by longer black bar), is overlaid with a 0.5-sec stimulus of candidate odors. […]
The recovery of the response to a 0.25% impulse (top) or 0.3% impulse (bottom) of CO2 was measured every 30-sec over a 6-min time period, after an initial 3-sec pre-exposure with (A) butanal (10^−1) (top), or (B) an ‘odor mixture’ consisting of 1-hexanol, pentanal, butanal, and 2,3-butanedione at 10^−2 concentration (bottom). […]

[3] = system: CO2 sensitive neuron (A neuron) of peg sensillum; assay: as above; format: cell-based, Aedes aegypti; settings: 3-sec pre-exposure, 10^-1; 0.3% CO2 impulse every 30-sec over 6-min
Procedure: as §1
as §2, with “bar),” for “bar), is”, “1-sec” for “0.5-sec”, “odor. CO2 and odor stimuli are applied in the same manner as discussed above.” for “candidate odors.”
The recovery of the response to a 0.3% impulse of CO2 was measured every 30-sec over a 6-min time period, after an initial 3-sec pre-exposure with (A) butanal (10^−1), or (B) an ‘odor mixture’ consisting of 1-hexanol, pentanal, butanal, and 2,3-butanedione at 10^−2 concentration. […]

[4] = system: CO2 sensitive A neuron of peg sensillum; assay: activation of CO2 sensitive neuron with a volatile odorant; format: cell-based, Culex quinquefasciatus; settings: indicated concentrations
Procedure: as §1
(a) Action potential traces from the peg sensillum of the maxillary palp show spike amplitudes from three neurons, where the spikes with the largest amplitude belongs to the CO2 sensitive A neuron. (b) 1 sec of the indicated dilution 2,3-butanedione is puffed to Aedes aegypti. (c) 1 sec of indicated odor is puffed to Anopheles gambiae. (d) butanone and (e) 2,3-butanedione are given to Culex quinquefasciatus at the indicated concentrations. PO=paraffin oil. n=5. Baseline activity subtracted. Error bars indicate SEM.

| Structure (SMILES) | CO2 response inhibition by structurally related odourants [1] | CO2 response after pre-exposure [2] | CO2 response after pre-exposure [3] | activation of CO2 sensitive neuron [4] |
| --- | --- | --- | --- | --- |
| CCCC=O [butanal] | effective inhibitors | long term reduction in CO2 response | long term reduction in CO2 response | – |
| CCC(C)=O [butanone] | – | – | – | activation; also recorded: activator |
| CCCCC=O [pentanal] | effective inhibitors | – | – | – |
